One test concerns the target T1, human aromatase (Homo sapiens, UniProt P11511).
T1 construct: purchased Gentest (Woburn, Mass.)
T1 sequence (P11511 1-503): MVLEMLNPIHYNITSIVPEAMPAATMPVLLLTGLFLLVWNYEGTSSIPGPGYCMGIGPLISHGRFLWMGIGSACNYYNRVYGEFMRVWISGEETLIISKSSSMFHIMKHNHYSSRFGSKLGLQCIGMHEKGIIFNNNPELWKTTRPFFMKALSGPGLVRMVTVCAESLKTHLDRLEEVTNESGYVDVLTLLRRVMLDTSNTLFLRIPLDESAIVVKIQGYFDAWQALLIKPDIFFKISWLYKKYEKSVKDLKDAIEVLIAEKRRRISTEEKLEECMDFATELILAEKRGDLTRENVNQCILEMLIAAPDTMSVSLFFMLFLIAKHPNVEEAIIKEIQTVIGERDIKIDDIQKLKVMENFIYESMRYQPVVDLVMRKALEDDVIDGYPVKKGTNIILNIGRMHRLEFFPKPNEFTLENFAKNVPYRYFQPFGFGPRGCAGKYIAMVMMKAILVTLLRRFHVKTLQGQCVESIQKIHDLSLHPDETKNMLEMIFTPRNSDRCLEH
Description: Human aromatase assay with dibenzylfluorescein substrate (fluorescence). Conditions: 1.5 h; percentage of inhibitory rate at 10 μM; ARO: Aromatase; read-out: ARO % I @ 10 μM. The class given is biochemical. The source says:
(§1) Human adrenocortical carcinoma NCI-H295R cell line is obtained from American Type Culture Collection (Manassas, Va.). Insulin/transferrin/selenium (ITS)-A supplement (100×), DMEM/F-12, antibiotic/antimycotic (100×), and fetal calf serum (FCS) are purchased from Gibco (Grand Island, N.Y.). Anti-mouse PVT scintillation proximity assay (SPA) beads and NBS 96-well plates are obtained from Amersham (Piscataway, N.J.) and Corning (Acton, Mass.), respectively. Solid black 96-well flat bottom plates are purchased from Costar (Corning, N.Y.). Aldosterone and angiotensin (Ang II) are purchased from Sigma (St. Louis, Mo.). D-[1,2,6,7^−3H(N)]aldosterone was acquired from PerkinElmer (Boston, Mass.). Nu-serum was a product of BD Biosciences (Franklin Lakes, N.J.). The NADPH regenerating system, dibenzylfluorescein (DBF), and human aromatase Supersomes® are obtained from Gentest (Woburn, Mass.).
To measure aromatase activity, the human aromatase assay is performed in 96-well flat bottom plates according to a published protocol (Stresser et al, 2000) with minor modifications. Briefly, 10 μl, of an NADPH regenerating system containing 2.6 mM NADP^+, 6.6 mM glucose 6-phosphate, 6.6 mM MgCl2, and 0.8 U/ml glucose-6-phosphate dehydrogenase in 50 mM potassium phosphate, pH 7.4, is pre-incubated with the test compound at a desired concentration at 30° C. for 10 min in a total volume of 100 μl. Afterwards, 4 pmol of human aromatase, 20 μg of control microsomal protein, and 4 μM DBF in 100 μl of 50 mM potassium phosphate, pH 7.4, is added to each well and incubated at 30° C. for 90 min. The reaction is terminated by the addition of 75 μl of 2 N NaOH to each well. After 2 hr, the product, fluorescein, is measured by a fluorimeter using excitation and emission wavelengths of 485 and 538 nm, respectively.
(§2) Full concentration-response curves of the test compound are performed at least 3 times. The IC50 values are derived using a non-linear least squares curve-fitting program from Microsoft XLfit.

Another test has as its target T2, aldosterone synthase (Homo sapiens, UniProt P19099).
T2 construct: host or cells: NCI-H295R
T2 sequence (P19099 25-503): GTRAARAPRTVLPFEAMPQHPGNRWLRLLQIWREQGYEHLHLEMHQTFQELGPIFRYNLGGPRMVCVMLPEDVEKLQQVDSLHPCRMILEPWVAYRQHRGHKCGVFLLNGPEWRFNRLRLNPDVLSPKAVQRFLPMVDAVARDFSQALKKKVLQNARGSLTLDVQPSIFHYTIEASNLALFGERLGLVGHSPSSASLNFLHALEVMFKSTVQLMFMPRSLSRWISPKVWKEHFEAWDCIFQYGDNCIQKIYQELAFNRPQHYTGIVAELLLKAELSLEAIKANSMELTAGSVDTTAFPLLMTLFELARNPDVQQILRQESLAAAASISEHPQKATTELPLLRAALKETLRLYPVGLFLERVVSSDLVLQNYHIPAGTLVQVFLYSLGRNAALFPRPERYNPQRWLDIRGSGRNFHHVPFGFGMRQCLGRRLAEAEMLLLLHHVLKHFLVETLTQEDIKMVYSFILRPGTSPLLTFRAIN
Description: Aldosterone production in Ang II-stimulated NCI-H295R cells (aldosterone synthase inhibition). Conditions: AS: aldosterone synthase. Format: cell-based.
Excerpt: as §1
For in vitro measurement of aldosterone activity, human adrenocortical carcinoma NCI-H295R cells are seeded in NBS 96-well plates at a density of 25,000 cells/well in 100 μl′ of a growth medium containing DMEM/F12 supplemented with 10% FCS, 2.5% Nu-serum, 1 μg ITS/ml, and 1× antibiotic/antimycotic. The medium is changed after culturing for 3 days at 37° C. under an atmosphere of 5% CO2/95% air. On the following day, cells are rinsed with 100 μl of DMEM/F12 and incubated with 100 μl of treatment medium containing 1 μM Ang II and a compound at different concentrations in quadruplicate wells at 37° C. for 24 hr. At the end of incubation, 50 μl of medium is withdrawn from each well for measurement of aldosterone production by an RIA using mouse anti-aldosterone monoclonal antibodies.
Measurement of aldosterone activity can also be performed using, a 96-well plate format. Each test sample is incubated with 0.02 μCi of D-[1,2,6,7-^3H(N)]aldosterone and 0.3 μg of anti-aldosterone antibody in phosphate-buffered saline (PBS) containing 0.1% Triton X-100, 0.1% bovine serum albumin, and 12% glycerol in a total volume of 200 μl at room temperature for 1 hr. Anti-mouse PVT SPA beads (50 μl) are then added to each well and incubated overnight at room temperature prior to counting in a Microbeta plate counter. The amount of aldosterone in each sample is calculated by comparing with a standard curve generated using known quantities of the hormone.
as §2

By IC50 is commonly meant the concentration at which inhibition is half-maximal. The low end stands for inhibition by little substance, the high end for a need for much substance. Consider `CCC(C)(C)C1C(=O)N(Cc2cccc(F)c2)CCc2cncn21` (single isomer, unassigned) [Compound 2, 4-(1,1-Dimethyl-propyl)-6-(3-fluoro-benzyl)-7,8-dihydro-6H-2,3a,6-triaza-azulen-5-one], for which, at human aromatase, the inhibition at 10 µM was determined as 60%. Also, half-maximal inhibition against aldosterone synthase (IC50) was put at 48 nM.

For `CC(C)(C)C1C(=O)N(Cc2ccc(Cl)cc2)Cc2cncn21` (single isomer, unassigned) [Compound 6, 5-tert-Butyl-7-(4-chloro-benzyl)-7,8-dihydro-imidazo[1,5-a]pyrazin-6-one], on human aromatase, the inhibition at 10 µM amounted to 51%. Also, the IC50 on aldosterone synthase was 3 nM.

On to `N#Cc1ccc(CN2Cc3cncn3C(C3CC3)C2=O)cc1` (single isomer, unassigned) [Compound 8, 4-(5-Cyclopropyl-6-oxo-5,6-dihydro-8H-imidazo[1,5-a]pyrazin-7-ylmethyl)-benzonitrile], for which the inhibition at 10 µM on human aromatase was 74%. At aldosterone synthase, this compound gave an IC50 of 66 nM.

The values above are taken from patent US20090264420A1, “ORGANIC COMPOUNDS” (priority 2006, published 2009).
